Measured values from patent publication US6362369B1, “Phthalic acid diamide derivatives fluorine-containing aniline compounds as starting material, agricultural and horticultural insecticides, and a method for application of the insecticides” (Nihon Nohyaku Co., Ltd., priority 1997, dated 2002).

Legend:
Format in all cases: in vivo
[1] = test system: diamondback moth (Plutella xylostella); experiment: Insecticidal effect on diamondback moth (Test Example 1); conditions: diamondback moth; judged by the criterion of Test Example 1
Outline: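 Triplicate groups of 10 insects: eggs laid on Chinese cabbage seedling by adults, seedling immersed then air-dried, kept at 25° C. Day-6 hatch counts gave mortality, rated by criterion.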

[2] = test system: common cutworm (Spodoptera Litura); experiment: Insecticidal effect on common cutworm (Test Example 2); conditions: 500 ppm, cabbage leaf dip, second-instar larvae of common cutworm, 8 days after inoculation, 25° C.
Outline: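 Second-instar larvae placed in 9 cm Petri dishes with air-dried treated material, held at 25 °C. Dead and live insects counted 8 days after inoculation; mortality calculated and scored against a set criterion. Triplicate groups of 10 insects.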

[3] = test system: rice leafroller (Cnaphalocrocis medinalis); experiment: Insecticidal effect on rice leafroller (Test Example 3); conditions: 500 ppm, rice lamina dip, third-instar larvae of rice leafroller, 4 days after inoculation, 25° C., humidity 70%
Outline: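 Insecticidal effect is judged by a predefined criterion from dead/alive counts four days after infesting air-dried lamina with third-instar larvae, kept on moistened filter paper at 25° C, 70% humidity.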

SMILES	Insecticidal effect (Test Example 1), judged from mortality [1]	Insecticidal effect (Test Example 2), judged from mortality [2]	Insecticidal effect (Test Example 3), judged from mortality [3]
Cc1cc(C(F)(F)C(F)(F)F)ccc1NC(=O)c1cccc(Cl)c1C(=O)NC(C)(C)C#Cc1ccc(C(F)(F)F)cc1 [compound 1585]	A (100)	A (100)	A (100)
Cc1cc(C(F)(F)C(F)(F)F)ccc1NC(=O)c1cccc(Cl)c1C(=O)NC(C)(C)C#Cc1c(Cl)cccc1Cl [compound 1586]	A (100)	C (89-80)	A (100)
Cc1cc(C(F)(F)C(F)(F)F)ccc1NC(=O)c1cccc(Cl)c1C(=O)NC(C)(C)C#Cc1ccccn1 [compound 1587]	A (100)	A (100)	A (100)
Cc1cc(C(F)(F)C(F)(F)F)ccc1NC(=O)c1cccc(Cl)c1C(=O)NC(C)(C)C#Cc1cccnc1 [compound 1590]	A (100)	A (100)	A (100)
C#CC(C)(C)NC(=O)c1c(Cl)cccc1C(=O)Nc1ccc(OC(F)(F)F)cc1C [compound 1602]	A (100)	A (100)	A (100)
Cc1cc(C(F)(F)C(F)(F)F)ccc1NC(=O)c1cccc(Cl)c1C(=O)NC(C)(C)/C=C/c1ccccc1 [compound 1604]	A (100)	A (100)	A (100)
CCN(CC)C(=O)c1c(I)cccc1C(=O)Nc1ccc(-c2ccc(F)cc2)cc1C [compound 1614]	A (100)	C (89-80)	A (100)
CCN(CC)C(=O)c1c(I)cccc1C(=O)Nc1ccc(-c2ccc(Cl)cc2)cc1C [compound 1615]	A (100)	A (100)	A (100)
Cc1cc(Oc2ncccn2)ccc1NC(=O)c1cccc(I)c1C(=O)NC(C)C [compound 1618]	A (100)	C (89-80)	A (100)
CC(C)NC(=O)c1c(I)cccc1C(=O)Nc1cc2c(cc1Cl)OC(F)(F)O2 [compound 1622]	A (100)	A (100)	A (100)
CC(C)NC(=O)c1c(Cl)cccc1C(=O)Nc1cc2c(cc1Cl)OC(F)(F)O2 [compound 1623]	A (100)	C (89-80)	A (100)
CC(C)(C)NC(=O)c1c(I)cccc1C(=O)Nc1cc2c(cc1Cl)OC(F)(F)O2 [compound 1624]	A (100)	D (79-50)	A (100)
CC(C)NC(=O)c1c(I)cccc1C(=O)Nc1cc2c(cc1Cl)OC(F)(F)C(F)(F)O2 [compound 1625]	A (100)	A (100)	A (100)
Cc1cc(OC(F)(F)F)ccc1NC(=O)c1cccc(I)c1C(=O)NC(C)(C)CCl [compound 1627]	A (100)	A (100)	A (100)
Cc1cc(C(F)(F)C(F)(F)F)ccc1NC(=O)c1cccc(Cl)c1C(=O)NC(C)(C)C#Cc1ccsc1 [compound 1628]	A (100)	A (100)	A (100)
C#CC(C)(C)NC(=O)c1c(I)cccc1C(=O)Nc1ccc(C(F)(F)C(F)(F)F)cc1C [compound 1629]	A (100)	A (100)	A (100)
Cc1cc(C(F)(F)C(F)(F)F)ccc1NC(=O)c1cccc(Cl)c1C(=O)NC(C)(C)C#Cc1ccc(OC(F)(F)F)cc1 [compound 1633]	A (100)	A (100)	A (100)
C#CC(C)(C)NC(=O)c1c(I)cccc1C(=O)Nc1ccc(OC(F)(F)F)cc1C [compound 1634]	A (100)	A (100)	A (100)
C#CC(C)(C)NC(=O)c1c(I)cccc1C(=O)Nc1ccc(OC(F)F)cc1C [compound 1635]	A (100)	A (100)	A (100)
CC(C)NC(=O)c1c(I)cccc1C(=O)Nc1ccc2nc(C(F)(F)C(F)(F)C(F)(F)F)oc2c1 [compound 1636]	A (100)	D (79-50)	A (100)
CC(C)NC(=O)c1c(I)cccc1C(=O)Nc1ccc2oc(C(F)(F)C(F)(F)C(F)(F)F)nc2c1 [compound 1637]	A (100)	A (100)	A (100)
CC(C)NC(=O)c1c(Cl)cccc1C(=O)Nc1ccc2oc(C(F)(F)C(F)(F)C(F)(F)F)nc2c1 [compound 1638]	A (100)	A (100)	A (100)
CC(C)(C)NC(=O)c1c(I)cccc1C(=O)Nc1ccc2oc(C(F)(F)C(F)(F)C(F)(F)F)nc2c1 [compound 1639]	A (100)	A (100)	A (100)
CC(C)NC(=O)c1c(Cl)cccc1C(=O)Nc1ccc2c(c1Cl)OC(F)(F)C(F)(F)O2 [compound 1642]	A (100)	A (100)	A (100)
CC(C)(C)NC(=O)c1c(I)cccc1C(=O)Nc1ccc2c(c1Cl)OC(F)(F)C(F)(F)O2 [compound 1644]	A (100)	A (100)	A (100)
CC(C)(C)NC(=O)c1c(I)cccc1C(=O)Nc1cc2c(cc1Cl)OC(F)(F)C(F)(F)O2 [compound 1645]	A (100)	A (100)	A (100)
Cc1cc(C(F)(F)C(F)(F)F)ccc1NC(=O)c1cccc(I)c1C(=O)NC(C)(C)CCl [compound 1646]	A (100)	A (100)	A (100)
Cc1cc(C(F)(F)C(F)(F)F)ccc1NC(=O)c1cccc(I)c1C(=O)NC(C)(C)CBr [compound 1647]	A (100)	A (100)	A (100)
Cc1cc(C(F)(F)C(F)(F)F)ccc1NC(=O)c1cccc(Cl)c1C(=O)NC(C)(C)C#Cc1ccc(Br)cn1 [compound 1649]	A (100)	A (100)	A (100)
Cc1cc(C(F)(F)C(F)(F)F)ccc1NC(=O)c1cccc(Cl)c1C(=O)NC(C)(C)C#Cc1ccc(F)cc1F [compound 1650]	A (100)	A (100)	A (100)
